Laboratory results taken from US20260248773A1, “POTASSIUM CHANNEL BLOCKERS OR DERIVATIVES THEREOF FOR PREVENTING, ALLEVIATING, AND/OR TREATING TISSUE DYSFUNCTION CAUSED BY TOXIC INSULTS” (priority 2022, published 2026).
“And” between values parts separate entries of the source, which are not always exact repeats. Equal values may be shown once. Read-outs that look alike come from different tables or passages of the source.

How the values were obtained:
PTX-induced CIPN [1] = assay: Repetitive PTX exposure, delayed 4-AP from week 6 (Example 5); type: in vivo, mice; conditions: four cycles 35 mg/kg PTX
Protocol: To examine this question, 16 week old C7BL/6 female mice were given four cycles of PTX treatment at doses of 35 mg/kg PTX (i.p.). Animals were separated into control (saline, i.p.) or treatment group treated with a dose of 4AP 25% of that used in FIGS. 1 and 2 (i.e., 0.5 mg/kg 4-AP daily, i.p., with treatment initiated 6 weeks after the first PTX treatment and when CIPN-related changes were already apparent).

[2] = system: glial fibrillary acidic protein (GFAP); assay: GFAP immunofluorescence in corpus callosum after PTX with or without 4-AP (Example 9); type: in vivo; conditions: E0771 tumor-bearing mice; PTX 35 mg/kg day one; 4-AP daily
Protocol: To determine whether 4-AP treatment can prevent PTX-induced increases in a reactive inflammatory response in the brain, as detected by increased expression of glial fibrillary acidic protein (GFAP), 16-week-old female C57BL/6 mice were inoculated with a triple negative murine breast cancer cell line E0771. When tumors were palpable, the mice were injected with either paclitaxel and water, 4-AP, both, or saline as a control. Paclitaxel (35 mg/kg) was injected on day one and 4-AP and water were injected daily. The mice were sacrificed on day nine and their brains were perfused and harvested. Brains were cryosectioned coronally.
The mouse brain sections were stained with anti-GFAP antibodies, followed by a fluorescent secondary, for analysis via immunofluorescence.

[3] = system: A549 human lung cancer cell line; assay: 4-AP co-applied with cisplatin to cancer cells in vitro (Example 10); type: cell-based; conditions: 5 days, 1 mM 4-AP
Protocol: To investigate the effects of 4-AP treatment on cancer cells, 4-AP was co-applied with either paclitaxel or cisplatin in dose response curves extending over a >20-fold range to the widely studied E0771 murine breast cancer cell line and the A549 human lung cancer cell line. Cells were exposed to paclitaxel or cisplatin for 5 days in the presence or absence of 1 mM 4-AP. This concentration of 4-AP is typically used for in vitro studies, and greatly exceeds achievable concentrations in vivo. This higher dose would increase the likelihood of detecting protective activity.

Guillain-Barré Syndrome = conditions: cited from earlier work
kidney = assay: Kidney histology (H&E) after PTX with or without 4-AP (Example 8); type: in vivo, mice; conditions: PTX day 0
Protocol: To examine effects on the kidney histological studies were conducted on this tissue. Mice received PTX on day 0 of the experiment, and half of those mice also were injected with 4-AP at this time, and every day thereafter, at a dosage of 2 mg/kg. Mice not receiving 4-AP were injected with saline to control for any stress induced by daily injections. Experimental groups also included mice receiving no PTX treatment, and treated only with daily injections of saline. Mice were sacrificed after 1 week. Mice were perfused with 4% paraformaldehyde and kidneys were sectioned and stained with haematoxylin & eosin (H&E).

[4] = Circulating 4-AP levels by HPLC (Example 11); type: in vivo, mice; conditions: for Circulating 4-AP levels, Amount / concentration at 1 h: 1 hour after i.p. injection, individual mice; for concentration at 1 h: mouse, blood, ip, 1 /g/kg, read-out: Circulating 4-AP levels, Amount
Protocol: 4-AP was injected i.p. at the indicated time points after the beginning of treatment. Mice received PTX on day 0 of the experiment, and half of those mice also were injected with 4-AP at this time, and every day thereafter, at a dosage of 1/g/kg. Blood samples were drawn 3 and 7 days after the beginning of the experiment and were taken 1 hour after the injection of 4-AP. Circulating levels of 4-AP were determined by HPLC analysis.

PTX-induced CIPN [5] = assay: Repetitive PTX exposure, 4-AP weeks 6-12, follow-up to week 18 (Example 6); type: in vivo, mice
Protocol: To examine this question, 16 week old C7BL/6 female mice were given four cycles of PTX treatment at doses of 35 mg/kg PTX (i.p.). All animals had functionally demonstrable peripheral neuropathy at six weeks. Animals were then treated with the same dose and treatment regimen of 4-AP used in FIG. 5.

[6] = system: chemotherapy-induced peripheral neuropathy (CIPN) caused by PTX
Protocol: More specifically, initial studies were conducted on the specific case of CIPN as induced by exposure to PTX. […] 16 week old C73L/6 female mice were given a single dose of 35 mg/kg PTX (i.p.). Animals were separated into control (saline, i.p., n=4) or treatment group (2 mg/kg 4-AP daily, i.p., n=4). Pre-treatment Catwalk scores were compared to 21 days post-PTX injection.
To align with clinical treatments, mice were treated with a PTX dose of 35 mg/kg (equivalent to approximately 110 mg/m^2 and within the clinical treatment range) for four cycles, each three weeks apart.
The studies also included a 4-AP treatment arm (n=4) with a daily dose of 2 mg/kg 4-AP administered i.p. (as per most previous studies by MN and colleagues).
To evaluate detailed functional changes in gait, the CatWalk™ (Noldus Information Technology, Wageningen, The Netherlands) method was implemented.
Sciatic nerve samples were harvested and resin-embedded, sectioned and imaged using transmission electron microscopy. Images were analyzed to calculate markers of peripheral neuropathy, namely: axon counts, fiber size, myelination (g ratio), and circumferential irregularity (FIG. 2).

[7] = 0.5 mg/kg 4-AP daily started at week 6
[8] = mice treated with 4-AP only, 3 days post
[9] = mice treated with PTX + 4-AP, 7 day 1st draw
[10] = 4-AP 0.5 mg/kg/day weeks 6-12, observed to week 18
[11] = 4-AP 0.5 mg/kg/day weeks 6-12, 12 and 18 week time points
[12] = 3 weeks after one 35 mg/kg PTX, 2 mg/kg 4-AP daily
[13] = single 35 mg/kg PTX i.p., 2 mg/kg 4-AP daily i.p., vs saline control
[14] = single 35 mg/kg PTX, 2 mg/kg 4-AP daily i.p., pre-treatment vs 21 days post-PTX

**Q.** What does the source list for `Nc1ccncc1` [4-AP, 4-aminopyridine]?
**A.** mechanical hypersensitivity, von Frey filament testing (PTX-induced CIPN [1]; 0.5 mg/kg 4-AP daily i.p. started at week 6): benefits of 4-AP treatment began to be observed at Week 12; gait abnormalities, Catwalk analyses (PTX-induced CIPN [1]; [7]): reversed PTX-induced gait abnormalities; jumping behavior, cold-plate stimulus (PTX-induced CIPN [1]; [7]): reversed the symptoms of hypersensitivity to thermal stimuli; nerve conduction (latency, amplitude, velocity) (PTX-induced CIPN [1]; [7]): reversed PTX-induced abnormalities in nerve conduction; structural myelin abnormalities indicative of myelin degeneration (PTX-induced CIPN [1]; [7]): reversed PTX-induced structural myelin abnormalities; PTX-induced increased expression of GFAP, corpus callosum [2]: greatly reduced; protection of cancer cells from cisplatin [3]: does not protect; pain scores (McGill Pain Inventory questionnaire, visual analog scale) (Guillain-Barré Syndrome; 4-AP vs placebo, p=0.92): no difference; nerve conduction velocity (Guillain-Barré Syndrome; Guillain-Barré patients): no clinically significant changes; proximal and distal tubules, H&E staining (kidney; 4-AP 2 mg/kg daily, sacrificed after 1 week): normal proximal and distal tubules; histological kidney damage caused by PTX exposure (kidney; 4-AP co-treatment): prevented multiple aspects of histological kidney damage; PTX-induced changes in kidney function (inferred from 4-AP renal clearance) ([4]; PTX day 0, 4-AP daily): prevented PTX-induced changes in kidney function; circulating 4-AP levels, 4-AP alone versus 4-AP+PTX ([4]; day 3 or day 7, 1 hour after i.p. injection): did not differ; Circulating 4-AP levels, Amount [4, 8]: 0.393 µM and 0.376 µM and 0.486 µM and 0.427 µM; Circulating 4-AP levels, Amount ([4]; mice treated with 4-AP only, 7 day 1st draw): 0.376 µM and 0.246 µM and 0.293 µM and 0.140 µM and 0.337 µM; Circulating 4-AP levels, Amount ([4]; mice treated with PTX + 4-AP, 3 days post): 0.721 µM and 0.504 µM and 0.312 µM and 0.321 µM and 0.277 µM; Circulating 4-AP levels, Amount [4, 9]: 0.292 µM and 0.274 µM and 0.236 µM and 0.231 µM; concentration at 1 h [4, 8]: 298 nM; concentration at 1 h [4, 9]: 352 nM; nerve conduction latency (PTX-induced CIPN [5]; 4-AP 0.5 mg/kg/day weeks 6-12): reverse PTX-induced abnormalities in nerve conduction latency; Catwalk Regularity Index (PTX-induced CIPN [5]; [10]): benefits observed at Week 9 (i.e, after 3 weeks of 4-AP treatment) and retained for at least 6 weeks after 4-AP treatment ended; durability of benefits on peripheral nerve function (PTX-induced CIPN [5]; [10]): Benefits were still present six weeks after the end of treatment; mechanical hypersensitivity, von Frey filament testing (PTX-induced CIPN [5]; [10]): Benefits began to be observed at Week 12 and were maintained at Weeks 15 and 18; paw lifts and jumping behavior, cold-plate stimulus (PTX-induced CIPN [5]; [10]): durable reversal; G-ratio (PTX-induced CIPN [5]; [11]): restored to normal at the 12 week time point, and these benefits are maintained at the 18 week time point; circularity (PTX-induced CIPN [5]; [11]): restored to normal at the 12 week time point, and these benefits are maintained at the 18 week time point; PTX-induced changes in mitochondrial size and health ([6]; 2 mg/kg 4-AP daily i.p.): decreased PTX-induced changes in mitochondrial size and health; signs of CIPN ([6]; 2 mg/kg 4-AP daily i.p. vs saline, n=4): significantly reduced signs of CIPN; G ratio (axon:myelin area), sciatic nerve [6, 12]: better myelinated than the control group; axon circularity, sciatic nerve [6, 12]: more regularly structured than the control group; nerve conduction latency [6, 13]: significantly smaller increase in latency; nerve conduction velocity [6, 13]: significantly smaller decrease in velocity; Catwalk stance phase [6, 14]: no significant changes; Catwalk swing phase [6, 14]: no significant changes
